Measured values from ChEMBL document CHEMBL6127048, “Water-soluble and predictable-release triptolide prodrugs block bleomycin-induced pulmonary fibrosis in mice” (Eur J Med Chem, 2024).
Values after ≈ are worked out from the molar mass of the structure shown. One block for each molecule: values may come before it. Active and inactive are the calls of the source. No cut-off for these calls is given here.

Columns and labels:
Mus musculus [1] = test: Anti-fibrotic activity in bleomycin-induced pulmonary fibrosis C57BL/6 mouse model assessed as increase in body weight at 60 mg/kg, po pretreated with bleomycin for 5 days and followed by compound administration for 14 days; assay type: functional, organism-based; details: time 14.0 day
Mus musculus [2] = test: Anti-fibrotic activity in bleomycin-induced pulmonary fibrosis C57BL/6 mouse model assessed as decrease in lung index at 60 mg/kg, po pretreated with bleomycin for 5 days and followed by compound administration for 15 days; assay type: functional, organism-based; details: time 15.0 day
Mus musculus [3] = test: Anti-fibrotic activity in bleomycin-induced pulmonary fibrosis C57BL/6 mouse model assessed as appearance of red collagen deposits in lung at 60 mg/kg, po pretreated with bleomycin for 5 days and followed by compound administration for 15 days by H and E staining based analysis; assay type: functional, organism-based; details: time 15.0 day
Mus musculus [4] = test: Anti-fibrotic activity in bleomycin-induced pulmonary fibrosis C57BL/6 mouse model assessed as decrease in myofibroblast by measuring alpha-SMA level at 60 mg/kg, po pretreated with bleomycin for 5 days and followed by compound administration for 15 days; assay type: functional, organism-based; details: time 15.0 day
Mus musculus [5] = test: Anti-fibrotic activity in bleomycin-induced pulmonary fibrosis C57BL/6 mouse model assessed as decrease in hydroxyproline level in lung at 60 mg/kg, po pretreated with bleomycin for 5 days and followed by compound administration for 15 days; assay type: functional, organism-based; details: time 15.0 day
Mus musculus [6] = test: Anti-fibrotic activity in bleomycin-induced pulmonary fibrosis C57BL/6 mouse model assessed as decrease in hydroxyproline level in lung at 60 mg/kg, po pretreated with bleomycin from day 1 and followed by compound administration for 15 days; assay type: functional, organism-based; details: time 15.0 day
[7] = Solubility of compound in water by HPLC analysis; assay type: physicochemical
[8] = Stability of compound in PBS buffer at pH 7.4 assessed as half life; assay type: physicochemical
[9] = Stability in human plasma assessed as half life measured upto 24 hrs by HPLC analysis; assay type: ADME, cell-free
[10] = Stability in mouse plasma assessed as half life measured upto 24 hrs by HPLC analysis; assay type: ADME, cell-free
[11] = Toxicity in C57BL/6 mouse assessed as change in AST level at 0.33 mg/kg, ip measured after 15 days; assay type: organism-based; details: in vivo, 360 h, time 15 day
HLF [12] = test: Upregulation of ADAM 10 expression in TGF-beta1-induced human HLF at 5 to 20 nM; assay type: functional, cell-based; details: dose 5-20 nM
Mus musculus [13] = test: Anti-fibrotic activity in bleomycin-induced pulmonary fibrosis C57BL/6 mouse model assessed as attenuation of collagen accumulation in lung at 0.33 mg/kg, ip pretreated with bleomycin for 5 days and followed by compound administration for 15 days by Masson staining based analysis; assay type: functional, organism-based; details: time 15.0 day
[14] = MRT (0 to t) in Kunming mouse at 1 mg/kg, iv measured upto 48 hrs by LC/MS analysis; assay type: ADME, organism-based; details: in vivo
[15] = MRT(0 to infinity) in Kunming mouse at 1 mg/kg, iv measured upto 48 hrs by LC/MS analysis; assay type: ADME, organism-based; details: in vivo
[16] = Toxicity in C57BL/6 mouse assessed as pathological changes in kidney at 0.33 mg/kg, ip measured after 15 days; assay type: organism-based; details: in vivo, 360 h, time 15 day
Mus musculus [17] = test: Anti-fibrotic activity in bleomycin-induced pulmonary fibrosis C57BL/6 mouse model assessed as decrease in TGF-beta1 level in BALF at 0.66 mg/kg, ip pretreated with bleomycin for 5 days and followed by compound administration for 15 days by ELISA analysis; assay type: functional, organism-based; details: time 15.0 day
[18] = Toxicity in C57BL/6 mouse assessed as change in ALT level at 0.33 mg/kg, ip measured after 15 days; assay type: organism-based; details: in vivo, 360 h, time 15 day
Mus musculus [19] = test: Anti-fibrotic activity in bleomycin-induced pulmonary fibrosis C57BL/6 mouse model assessed as decrease in hydroxyproline level in lung at 0.33 to 0.66 mg/kg, ip pretreated with bleomycin for 5 days and followed by compound administration for 15 days; assay type: functional, organism-based; details: dose 0.33-0.66 mg/kg, time 15.0 day
[20] = Cytotoxicity in human HLF upto 0.625 uM; assay type: toxicity, cell-based
HLF [21] = test: Inhibition of TGF-betal induced alpha-SMA production in human HLF at 5 to 20 nM incubated for 2 hrs by DAPI staining based laser scanning confocal microscopic analysis; assay type: functional, cell-based; details: dose 5-20 nM
[22] = Half life in Kunming mouse at 1 mg/kg, iv measured upto 48 hrs by LC/MS analysis; assay type: ADME, organism-based; details: in vivo
Mus musculus [23] = test: Anti-fibrotic activity in bleomycin-induced pulmonary fibrosis C57BL/6 mouse model at 0.66 mg/kg, ip pretreated with bleomycin for 5 days and followed by compound administration for 15 days; assay type: functional, organism-based; details: time 15.0 day
Mus musculus [24] = test: Anti-fibrotic activity in bleomycin-induced pulmonary fibrosis C57BL/6 mouse model assessed as appearance of red collagen deposits in lung at 0.33 mg/kg, ip pretreated with bleomycin for 5 days and followed by compound administration for 15 days by H and E staining based analysis; assay type: functional, organism-based; details: time 15.0 day
Mus musculus [25] = test: Anti-fibrotic activity in bleomycin-induced pulmonary fibrosis C57BL/6 mouse model assessed as infiltrated interstitial matrix in lung at 0.33 mg/kg, ip pretreated with bleomycin for 5 days and followed by compound administration for 15 days by H and E staining based analysis; assay type: functional, organism-based; details: time 15.0 day
[26] = Prodrug conversion of the compound in phosphate buffer saline at pH 8 assessed as (6aS,7aS,8R,8aR,9aS,9bS,10aS,10bS)-8-hydroxy-8a-isopropyl-10b-methyl-2,5,5b,6,6a,8,8a,9a,9b,10b-decahydrotris(oxireno)[2',3':4b,5;2'',3'':6,7;2''',3''':8a,9]phenanthro[1,2-c]furan-3(1H)-one formation by measuring half life; assay type: ADME
Mus musculus [27] = test: Anti-fibrotic activity in bleomycin-induced pulmonary fibrosis C57BL/6 mouse model assessed as decrease in TGF-beta1 level in BALF at 0.66 mg/kg, ip pretreated with bleomycin from day 1 and followed by compound administration for 15 days by ELISA analysis; assay type: functional, organism-based; details: time 15.0 day
[28] = Clearance in Kunming mouse at 1 mg/kg, iv measured upto 48 hrs by LC/MS analysis; assay type: ADME, organism-based; details: in vivo
Mus musculus [29] = test: Anti-fibrotic activity in bleomycin-induced pulmonary fibrosis C57BL/6 mouse model assessed as downregulation of ADAM 10 level in BALF at 0.66 mg/kg, ip pretreated with bleomycin for 5 days and followed by compound administration for 15 days by ELISA analysis; assay type: functional, organism-based; details: time 15.0 day
Mus musculus [30] = test: Anti-fibrotic activity in bleomycin-induced pulmonary fibrosis C57BL/6 mouse model assessed as infiltrated interstitial matrix in lung at 60 mg/kg, po pretreated with bleomycin for 5 days and followed by compound administration for 15 days by H and E staining based analysis; assay type: functional, organism-based; details: time 15.0 day
[31] = Volume of distribution in Kunming mouse at 1 mg/kg, iv measured upto 48 hrs by LC/MS analysis; assay type: ADME, organism-based; details: in vivo
[32] = AUC (0 to infinity) in Kunming mouse at 1 mg/kg, iv measured upto 48 hrs by LC/MS analysis; assay type: ADME, organism-based; details: in vivo
HLF [33] = test: Inhibition of sEphrin-B2 expression level in human HLF at 20 nM; assay type: functional, cell-based
Mus musculus [34] = test: Anti-fibrotic activity in bleomycin-induced pulmonary fibrosis C57BL/6 mouse model assessed as decrease in lung index at 0.33 mg/kg, ip pretreated with bleomycin for 5 days and followed by compound administration for 15 days; assay type: functional, organism-based; details: time 15.0 day
Mus musculus [35] = test: Anti-fibrotic activity in bleomycin-induced pulmonary fibrosis C57BL/6 mouse model assessed as downregulation of sEphrin-B2 level in BALF at 0.33 to 0.66 mg/kg, ip pretreated with bleomycin for 5 days and followed by compound administration for 15 days by ELISA analysis; assay type: functional, organism-based; details: dose 0.33-0.66 mg/kg, time 15.0 day
[36] = Prodrug conversion of the compound in phosphate buffer saline at pH 6.5 assessed as (6aS,7aS,8R,8aR,9aS,9bS,10aS,10bS)-8-hydroxy-8a-isopropyl-10b-methyl-2,5,5b,6,6a,8,8a,9a,9b,10b-decahydrotris(oxireno)[2',3':4b,5;2'',3'':6,7;2''',3''':8a,9]phenanthro[1,2-c]furan-3(1H)-one formation by measuring half life; assay type: ADME
[37] = Toxicity in C57BL/6 mouse assessed as pathological changes in liver at 0.33 mg/kg, ip measured after 15 days; assay type: organism-based; details: in vivo, 360 h, time 15 day
[38] = Prodrug conversion of the compound in phosphate buffer saline at pH 7.4 assessed as (6aS,7aS,8R,8aR,9aS,9bS,10aS,10bS)-8-hydroxy-8a-isopropyl-10b-methyl-2,5,5b,6,6a,8,8a,9a,9b,10b-decahydrotris(oxireno)[2',3':4b,5;2'',3'':6,7;2''',3''':8a,9]phenanthro[1,2-c]furan-3(1H)-one formation by measuring half life; assay type: ADME
Mus musculus [39] = test: Anti-fibrotic activity in bleomycin-induced pulmonary fibrosis C57BL/6 mouse model assessed as increase in body weight at 0.33 mg/kg, ip pretreated with bleomycin for 5 days and followed by compound administration for 14 days; assay type: functional, organism-based; details: time 14.0 day
[40] = Toxicity in C57BL/6 mouse assessed as change in creatinine level at 0.33 mg/kg, ip measured after 15 days; assay type: organism-based; details: in vivo, 360 h, time 15 day
Mus musculus [41] = test: Anti-fibrotic activity in bleomycin-induced pulmonary fibrosis C57BL/6 mouse model assessed as decrease in hydroxyproline level in lung at 0.33 to 0.66 mg/kg, ip pretreated with bleomycin from day 1 and followed by compound administration for 15 days; assay type: functional, organism-based; details: dose 0.33-0.66 mg/kg, time 15.0 day
Mus musculus [42] = test: Anti-fibrotic activity in bleomycin-induced pulmonary fibrosis C57BL/6 mouse model assessed as decrease in myofibroblast by measuring alpha-SMA level at 0.33 to 0.66 mg/kg, ip pretreated with bleomycin for 5 days and followed by compound administration for 15 days; assay type: functional, organism-based; details: dose 0.33-0.66 mg/kg, time 15.0 day
[43] = Toxicity in C57BL/6 mouse assessed as change in BUN level at 0.33 mg/kg, ip measured after 15 days; assay type: organism-based; details: in vivo, 360 h, time 15 day

Compound: COC(=O)c1ccc2c(c1)NC(=O)/C2=C(\Nc1ccc(N(C)C(=O)CN2CCN(C)CC2)cc1)c1ccccc1
- Activity (Mus musculus [1]): Active
- Activity (Mus musculus [2]): Active
- Activity (Mus musculus [3]): Active
- Activity (Mus musculus [4]): Active
- Activity (Mus musculus [5]): Active
- Activity (Mus musculus [6]): Active

Compound: CC(C)[C@]12O[C@H]1[C@@H]1O[C@]13[C@]1(O[C@H]1C[C@H]1C4=C(CC[C@@]13C)C(=O)OC4)[C@@H]2OC(=O)NC1CCCCC1N (some centres not stated)
- solubility [7]: 6.96 mg/mL (≈ 13.9 mM)
- half-life [8]: 1.85 h
- half-life [9]: 1.69 h
- half-life [10]: 1.62 h

Compound: CC(C)[C@]12O[C@H]1[C@@H]1O[C@]13[C@]1(O[C@H]1C[C@H]1C4=C(CC[C@@]13C)C(=O)OC4)[C@@H]2OCOP(=O)([O-])[O-].[Na+].[Na+] [MINNELIDE]
- solubility [7]: 93.3 mg/mL

Compound: CC(C)[C@]12O[C@H]1[C@@H]1O[C@]13[C@]1(O[C@H]1C[C@H]1C4=C(CC[C@@]13C)C(=O)OC4)[C@@H]2OC(=O)CCC(=O)[O-].[Na+] [OMTRIPTOLIDE SODIUM]
- solubility [7]: 1.39 mg/mL

Now from value to molecule, other results behind:

- solubility [7]: 12.5 mg/mL (≈ 28 mM)
- half-life [8]: 25.2 h
- half-life [9]: 24.5 h
- half-life [10]: 27.3 h
Compound: CC(C)[C@]12O[C@H]1[C@@H]1O[C@]13[C@]1(O[C@H]1C[C@H]1C4=C(CC[C@@]13C)C(=O)OC4)[C@@H]2OC(=O)NCCN

- solubility [7]: 8.99 mg/mL (≈ 18.5 mM)
- half-life [8]: 2.46 h
- half-life [9]: 1.45 h
- half-life [10]: 1.79 h
Compound: CC(C)[C@]12O[C@H]1[C@@H]1O[C@]13[C@]1(O[C@H]1C[C@H]1C4=C(CC[C@@]13C)C(=O)OC4)[C@@H]2OC(=O)NCC1CCCN1 (some centres not stated)

- solubility [7]: 30.8 mg/mL (≈ 64.9 mM)
- MRT last at 48 h [14]: 11.5 h
- MRT inf [15]: 14.8 h
- half-life [8]: 17.7 h
- half-life [9]: 16.4 h
- t1/2 [22]: 7.72 h
- t1/2 [26]: 4.52 h
- CL [28]: 15.2 mL/min/kg
- Vd [31]: 0.119 L/kg
- half-life [10]: 17 h
- AUC(0-inf) [32]: 1100 ng·h/mL
- t1/2 [36]: 81.7 h
- t1/2 [38]: 17.7 h
Compound: CNCCN(C)C(=O)O[C@@H]1[C@@]2(C(C)C)O[C@H]2[C@@H]2O[C@]23[C@]12O[C@H]2C[C@H]1C2=C(CC[C@@]13C)C(=O)OC2
- Activity [11]: Non-Toxic
- Activity (HLF [12]): Active
- Activity (Mus musculus [13]): Active
- Activity [16]: Non-Toxic
- Activity (Mus musculus [17]): Active
- Activity [18]: Non-Toxic
- Activity (Mus musculus [19]): Active
- Activity [20]: Non-Toxic
- inhibition (HLF [21]): Active
- Activity (Mus musculus [23]): Active
- Activity (Mus musculus [24]): Active
- Activity (Mus musculus [25]): Active
- Activity (Mus musculus [27]): Active
- Activity (Mus musculus [29]): Active
- Activity (Mus musculus [30]): Active
- inhibition (HLF [33]): Active
- Activity (Mus musculus [34]): Active
- Activity (Mus musculus [35]): Active
- Activity [37]: Non-Toxic
- Activity (Mus musculus [39]): Active
- Activity [40]: Non-Toxic
- Activity (Mus musculus [41]): Active
- Activity (Mus musculus [42]): Active
- Activity [43]: Non-Toxic
